Common to all, as to type: cell-based
In series [1] the test system is PACA2 (pancreatic carcinoma). As to the kind of experiment: MTT assay, PACA2. The following applies: Homo sapiens, PaCa-2, 48 h, MTT, read-out: (%) Mortality of PACA2; for cytotoxicity at 100 µg/mL: at 100 μg ml^−1, 48 hours. How it is done: (§1) The percentage of the cell viability treated with the newly synthesized compounds was evaluated using MTT assay (3-(4,5-dimethylthiazol-2-yl)-2,5-diphenyl tetrazolium bromide). All the subsequent steps were done in a sterile Laminar flow class II biosafety cabinet (Baker, SG406INT, Sanford, ME, USA). DMEM was used as a suspension medium for breast cancer (MCF7), prostate cancer (PC3), and pancreatic cancer (PACA2), while normal cell line (BJ1) was suspended in DMEM-F12 medium, a 1% antibiotic-antimycotic mixture (10 000 U ml^−1 potassium penicillin, 10 000 μg ml^−1 streptomycin sulfate, and 25 μg ml^−1 amphotericin B), and 1% L-glutamine at 37 °C under 5% CO2.
(§2) Cells were cultured for 10 days and then seeded at a concentration of 10 × 10^4 cells per well in fresh complete growth medium in 96-well microtiter plastic plates at 37 °C for 24 hours under 5% CO2 using a water-jacketed carbon dioxide incubator (Sheldon, TC2323). Media were aspirated, serum-free fresh medium was added, and cells were incubated either alone (negative control) or with different concentrations of the synthesized chalcone derivatives to a final concentration of (100–50–25–12.5–6.25–3.125–0.78 and 1.56 μg ml^−1). After incubation for 48 hours, the medium was aspirated and 40 μl of MTT salt ([…]) was added to each well and incubated for another four hours at 37 °C under 5% CO2. To stop the reaction and dissolve the formed crystals, 200 μl of 10% sodium dodecyl sulfate (SDS) in deionized water was added to each well and incubated overnight at 37 °C.
(§3) The absorbance was then measured at 595 nm and a reference wavelength of 620 nm using a microplate multi-well reader (Bio-Rad Laboratories Inc., model 3350). Statistical significance was tested between the samples and the negative control (cells with vehicle) using an independent t-test using the SPSS 11 program. DMSO was the vehicle used for the dissolution of the synthesized chalcones, and its final concentration on the cells was less than 0.2%. The percentage of change in viability was calculated according to the formula: ((reading of extract/reading of negative control) − 1) × 100. A Probit analysis was carried out for the determination of IC50 using the SPSS 11 program.

For series [2], the system named is MCF7 (human breast adenocarcinoma). Put plainly: MTT assay, MCF7. Particulars: Homo sapiens, MTT; for cytotoxicity at 100 µg/mL: at 100 μg ml^−1, 48 hours. How it is done:
as §1, §2, §3

In series [3] the test system is BJ1 (normal skin fibroblasts). Put plainly: MTT assay, normal cell line BJ1. The following applies: Skin fibroblast, 48 hours. How it is done: as §1, §2, §3
The nature of series [4]: MTT assay, normal cell line BJ1. Particulars: human, BJ1 normal skin fibroblasts, at 100 μg ml^−1, 48 hours, read-out: (%) Mortality of BJ1. How it is done:
as §1, §2, §3

Series [5] deals with PC3 (prostatic cancer). Put plainly: MTT assay, PC3. Particulars: Homo sapiens, 48 h, MTT, read-out: (%) Mortality of PC3; for cytotoxicity at 100 µg/mL: at 100 μg ml^−1, 48 hours. How it is done:
as §1, §2, §3

[6] abbreviates: MCF7, 48 h, read-out: (%) Mortality of MCF7.

Experimental findings from publication PMC11232109, “Synthesis, anticancer evaluation of novel hybrid pyrazole-based chalcones, molecular docking, DNA fragmentation, and gene expression: in vitro studies” (RSC Advances, 2024) are described below.

Molecules are shown by their SMILES.

For the compound `Cc1c(C(=O)C=Cc2ccncc2)c(-c2cccs2)nn1-c1ccc([N+](=O)[O-])cc1` [Compound 7c, 1-(5-Methyl-1-(4-nitrophenyl)-3-(thiophen-2-yl)-1H-pyrazol-4-yl)-3-(pyridin-4-yl)prop-2-en-1-one], the cytotoxicity at 6.25 µg/mL was 100% in series [1] (up to 6.25 μg ml^−1, 48 hours); 100% in series [2] (MCF7, 48 h, up to 6.25 μg ml^−1, 48 hours, read-out: (%) Mortality of MCF7); 100% in series [5] (up to 6.25 μg ml^−1, 48 hours). Further, the IC50 in series [3] was determined as 86.2 ± 0.22 µM. In addition, in series [4], the cytotoxicity at 48 h, 100 μg ml^−1 was 52.3 ± 0.76%.
Turning to `Cc1c(C(=O)C=Cc2cccs2)c(-c2cccs2)nn1-c1ccc([N+](=O)[O-])cc1` [Compound 7b, 1-(5-Methyl-1-(4-nitrophenyl)-3-(thiophen-2-yl)-1H-pyrazol-4-yl)-3-(thiophen-2-yl)prop-2-en-1-one], the cytotoxicity at 100 µg/mL in series [1] turned out to be 32.5 ± 0.74%; in series [2] (setting [6]) it was 45.3 ± 0.98%; in series [5] it was 4.2 ± 0.73%.
In the case of `Cc1c(C(=O)C=Cc2nn(-c3ccccc3)cc2-c2cccs2)c(-c2cccs2)nn1-c1ccc([N+](=O)[O-])cc1` [Compound 9f, 1-(5-Methyl-1-(4-nitrophenyl)-3-(thiophen-2-yl)-1H-pyrazol-4-yl)-3-(1-phenyl-4-(thiophen-2-yl)-1H-pyrazol-3-yl)prop-2-en-1-one], the values for the cytotoxicity at 100 µg/mL in series [1], in series [2] (setting [6]) and in series [5] were 16.5 ± 0.35%, 80.4 ± 0.25% and 4.5 ± 0.23%, respectively.
For `Cc1c(C(=O)C=Cc2nn(-c3ccccc3)cc2-c2ccc(Cl)cc2)c(-c2cccs2)nn1-c1ccc([N+](=O)[O-])cc1` [Compound 9d, 3-(4-(4-Chlorophenyl)-1-phenyl-1H-pyrazol-3-yl)-1-(5-methyl-1-(4-nitrophenyl)-3-(thiophen-2-yl)-1H-pyrazol-4-yl)prop-2-en-1-one] the same measures were 54.5 ± 0.84%, 44.2 ± 0.33% and 3.5 ± 0.92%.
For `COc1ccc(-c2cn(-c3ccccc3)nc2C=CC(=O)c2c(-c3cccs3)nn(-c3ccc([N+](=O)[O-])cc3)c2C)cc1` [Compound 9c, 3-(4-(4-Methoxyphenyl)-1-phenyl-1H-pyrazol-3-yl)-1-(5-methyl-1-(4-nitrophenyl)-3-(thiophen-2-yl)-1H-pyrazol-4-yl)prop-2-en-1-one], in that order: 19.8 ± 0.68%, 25.2 ± 0.41% and 2.9 ± 0.57%.
For `Cc1ccc(-c2cn(-c3ccccc3)nc2C=CC(=O)c2c(-c3cccs3)nn(-c3ccc([N+](=O)[O-])cc3)c2C)cc1` [Compound 9b, 1-(5-Methyl-1-(4-nitrophenyl)-3-(thiophen-2-yl)-1H-pyrazol-4-yl)-3-(1-phenyl-4-(p-tolyl)-1H-pyrazol-3-yl)prop-2-en-1-one], in that order: 39.5 ± 0.91%, 44.5 ± 0.74% and 27.2 ± 0.31%.
In the case of `Cc1c(C(=O)C=Cc2ccco2)c(-c2cccs2)nn1-c1ccc([N+](=O)[O-])cc1` [Compound 7a, 3-(Furan-2-yl)-1-(5-methyl-1-(4-nitrophenyl)-3-(thiophen-2-yl)-1H-pyrazol-4-yl)prop-2-en-1-one], the cytotoxicity at 100 µg/mL in series [1] came to 17.3 ± 0.13%; in series [2] (setting [6]) it was 63.5 ± 0.11%; in series [5], 3.8 ± 0.65%. For the same compound, the IC50 in series [2] (MCF7, 48 hours) worked out at 72.3 ± 0.34 µM. For the same compound, the cytotoxicity at 48 h, 100 μg ml^−1 in series [4] was 11.2 ± 0.48%.
Turning to `Cc1c(C(=O)C=Cc2nn(-c3ccccc3)cc2-c2ccccc2)c(-c2cccs2)nn1-c1ccc([N+](=O)[O-])cc1` [Compound 9a, 3-(1,4-Diphenyl-1H-pyrazol-3-yl)-1-(5-methyl-1-(4-nitrophenyl)-3-(thiophen-2-yl)-1H-pyrazol-4-yl)prop-2-en-1-one], the cytotoxicity at 100 µg/mL in series [1] was 50.3 ± 0.42%; in series [2] (setting [6]), 42.3 ± 0.21%; in series [5] it was 4.5 ± 0.26%.
